{"source": "paper PMC11111408", "about": "“Concurrent inhibition of oncogenic and wild-type RAS-GTP for cancer therapy” (Nature, 2024)", "key": {"[1]": {"system": "KRAS^G12X PDAC, CRC and NSCLC xenograft models", "assay": "Panel of 15 KRAS^G12X CDX and PDX xenograft models", "type": "in vivo, mouse", "conditions": "for % Tumor Volume Change: PSN-1, BALB/c nude mice, 10 mg/kg po qd, 10 mg/kg", "procedure": "Xenograft studies were conducted at GenenDesign, Pharmaron, Wuxi AppTec, the laboratory of P. Lito, and the laboratory of C. Ambrogio. […] All procedures related to animal handling, care and treatment were conducted in compliance with all applicable regulations and guidelines of the relevant Institutional Animal Care and Use Committee (IACUC). […] Experimental details are supplied in the Supplementary Methods."}, "RAS-less MEFs": {"system": "RAS-less MEFs", "assay": "Western blots of isogenic RAS-less MEF cells expressing KRAS variants or BRAF(V600E)", "type": "cell-based, mouse", "conditions": "24 h, western blot"}, "[2]": {"system": "KRAS^G12D PDAC cell lines", "assay": "Western blot time course of RAS signalling in KRAS^G12D PDAC cell lines", "type": "cell-based, human", "conditions": "KRAS^G12D PDAC cells in culture, 2 h to 48 h", "procedure": "Total ERK and vinculin were used as loading controls. […] Source Data\nCells were lysed with MSD Tris Lysis Buffer (MSD, R60TX-2) or a buffer of 1% Triton X-100, 20 mM Tris-HCl, 150 mM NaCl, and 1 mM EDTA, both supplemented with protease and phosphatase inhibitors. Lysates were cleared by centrifugation and quantified by BCA assay (Pierce, 23225). […] Image Studio Lite (Version 5.2.5) and Image Lab (Version 6.1.0 build 7) software were used for data analysis."}, "GDP-bound KRAS(G12C)": {"molecular_target": "T1, GDP-bound KRAS(G12C) (Homo sapiens, UniProt P01116, G12C)", "T1 construct": "His6-TEV (N); made in house; host or cells: E. coli BL21(DE3)", "assay": "SPR binding of RMC-7977–CYPA binary complex to GDP-bound KRAS", "conditions": "in vitro"}, "[3]": {"system": "Pa16C cells expressing MEK1 mutants", "assay": "Proliferation (Calcein AM) of Pa16C cells expressing MEK1 mutants", "type": "cell-based, human"}}, "note": "Values joined by “and” are separate entries in the source; they are usually repeats but may differ in a detail not shown here. Equal entries are not always repeated."}
{"smiles": "CCn1c(-c2cc(N3CCN(C4CC4)CC3)cnc2[C@H](C)OC)c2c3cc(ccc31)-c1csc(n1)C[C@H](NC(=O)[C@H]1[C@@H]3COC[C@@H]31)C(=O)N1CCC[C@H](N1)C(=O)OCC(C)(C)C2", "note": "[RMC-7977]", "values": [{"measurement": "% Tumor Volume Change", "setting": "[1]; day 0, individual animals", "value": "179% and 166%"}, {"measurement": "% Tumor Volume Change", "setting": "[1]; day 3, individual animals", "value": "154% and 97%"}, {"measurement": "% Tumor Volume Change", "setting": "[1]; day 7, individual animals", "value": "134% and 82%"}, {"measurement": "% Tumor Volume Change", "setting": "[1]; day 10, individual animals", "value": "126% and 70%"}, {"measurement": "% Tumor Volume Change", "setting": "[1]; day 14, individual animals", "value": "117% and 66%"}, {"measurement": "% Tumor Volume Change", "setting": "[1]; day 17, individual animals", "value": "116% and 65%"}, {"measurement": "% Tumor Volume Change", "setting": "[1]; day 21, individual animals", "value": "121% and 60%"}, {"measurement": "% Tumor Volume Change", "setting": "[1]; day 24, individual animals", "value": "131% and 55%"}, {"measurement": "% Tumor Volume Change", "setting": "[1]; day 28, individual animals", "value": 132, "unit": "%"}, {"measurement": "median time to tumour doubling", "setting": "[1]; treatment up to 90 days, Kaplan–Meier analysis", "value": "did not reach a median time to tumour doubling"}, {"measurement": "pERK suppression in RAS-less MEFs", "setting": "RAS-less MEFs", "value": "suppressed pERK in all KRAS-expressing cells, but not in BRAF(V600E)-expressing RAS-less MEFs"}, {"measurement": "pERK suppression over time", "setting": "[2]", "value": "sustained pERK suppression"}, {"measurement": "binding of RMC-7977–CYPA binary complex to GDP-bound KRAS(G12C)", "setting": "GDP-bound KRAS(G12C)", "value": "No binding was observed"}, {"measurement": "Proliferation of Pa16C cells expressing MEK1 mutant constructs", "setting": "[3]; MEK1E102-I103del, inhibitor 0.010 nM", "value": 100}, {"measurement": "Proliferation of Pa16C cells expressing MEK1 mutant constructs", "setting": "[3]; MEK1E102-I103del, inhibitor 0.046 nM", "value": "104.2 and 107.7 and 121 and 88.4"}, {"measurement": "Proliferation of Pa16C cells expressing MEK1 mutant constructs", "setting": "[3]; MEK1E102-I103del, inhibitor 11.111 nM", "value": "80.9 and 75.7 and 68.8 and 87.1"}, {"measurement": "Proliferation of Pa16C cells expressing MEK1 mutant constructs", "setting": "[3]; MEK1E102-I103del, inhibitor 33.333 nM", "value": "72.5 and 68.1 and 61 and 93"}, {"measurement": "Proliferation of Pa16C cells expressing MEK1 mutant constructs", "setting": "[3]; MEK1E102-I103del, inhibitor 100.000 nM", "value": "65.9 and 65.1 and 49.1 and 77.1"}, {"measurement": "Proliferation of Pa16C cells expressing MEK1 mutant constructs", "setting": "[3]; MEK1E102-I103del, inhibitor 300.000 nM", "value": "58.5 and 56.3 and 42.3 and 60.5"}, {"measurement": "Proliferation of Pa16C cells expressing MEK1 mutant constructs", "setting": "[3]; MEK1K57N, inhibitor 0.010 nM", "value": 100}, {"measurement": "Proliferation of Pa16C cells expressing MEK1 mutant constructs", "setting": "[3]; MEK1K57N, inhibitor 0.046 nM", "value": "132.7 and 110.5 and 108.3"}, {"measurement": "Proliferation of Pa16C cells expressing MEK1 mutant constructs", "setting": "[3]; MEK1K57N, inhibitor 11.111 nM", "value": "106.5 and 108.3 and 128.9"}, {"measurement": "Proliferation of Pa16C cells expressing MEK1 mutant constructs", "setting": "[3]; MEK1K57N, inhibitor 33.333 nM", "value": "101 and 88.9 and 126.9"}, {"measurement": "Proliferation of Pa16C cells expressing MEK1 mutant constructs", "setting": "[3]; MEK1K57N, inhibitor 100.000 nM", "value": "86.3 and 76.5 and 119.3"}, {"measurement": "Proliferation of Pa16C cells expressing MEK1 mutant constructs", "setting": "[3]; MEK1K57N, inhibitor 300.000 nM", "value": "68.3 and 60.7 and 90.3"}, {"measurement": "Proliferation of Pa16C cells expressing MEK1 mutant constructs", "setting": "[3]; MEK1Q56P, inhibitor 0.010 nM", "value": 100}, {"measurement": "Proliferation of Pa16C cells expressing MEK1 mutant constructs", "setting": "[3]; MEK1Q56P, inhibitor 0.046 nM", "value": "111.1 and 128.1 and 116.5"}, {"measurement": "Proliferation of Pa16C cells expressing MEK1 mutant constructs", "setting": "[3]; MEK1Q56P, inhibitor 11.111 nM", "value": "109 and 97.6 and 77.9"}, {"measurement": "Proliferation of Pa16C cells expressing MEK1 mutant constructs", "setting": "[3]; MEK1Q56P, inhibitor 33.333 nM", "value": "99.6 and 83.8 and 68"}, {"measurement": "Proliferation of Pa16C cells expressing MEK1 mutant constructs", "setting": "[3]; MEK1Q56P, inhibitor 100.000 nM", "value": "81.8 and 65.9 and 54.2"}, {"measurement": "Proliferation of Pa16C cells expressing MEK1 mutant constructs", "setting": "[3]; MEK1Q56P, inhibitor 300.000 nM", "value": "72.6 and 57.1 and 47.4"}, {"measurement": "Proliferation of Pa16C cells expressing MEK1 mutant constructs", "setting": "[3]; MEK1S218D/S222D, inhibitor 0.010 nM", "value": 100}, {"measurement": "Proliferation of Pa16C cells expressing MEK1 mutant constructs", "setting": "[3]; MEK1S218D/S222D, inhibitor 0.046 nM", "value": "98 and 111.5 and 106.4 and 100.9"}, {"measurement": "Proliferation of Pa16C cells expressing MEK1 mutant constructs", "setting": "[3]; MEK1S218D/S222D, inhibitor 11.111 nM", "value": "89.6 and 94.3 and 98.3 and 90.9"}, {"measurement": "Proliferation of Pa16C cells expressing MEK1 mutant constructs", "setting": "[3]; MEK1S218D/S222D, inhibitor 33.333 nM", "value": "86.8 and 90.6 and 104.9 and 86"}, {"measurement": "Proliferation of Pa16C cells expressing MEK1 mutant constructs", "setting": "[3]; MEK1S218D/S222D, inhibitor 100.000 nM", "value": "81.6 and 87.3 and 91 and 73.6"}, {"measurement": "Proliferation of Pa16C cells expressing MEK1 mutant constructs", "setting": "[3]; MEK1S218D/S222D, inhibitor 300.000 nM", "value": "72.8 and 76 and 71.6 and 55.5"}, {"measurement": "Proliferation of Pa16C cells expressing MEK1 mutant constructs", "setting": "[3]; MEK1WT, inhibitor 0.010 nM", "value": 100}, {"measurement": "Proliferation of Pa16C cells expressing MEK1 mutant constructs", "setting": "[3]; MEK1WT, inhibitor 0.046 nM", "value": "97.2 and 123.9 and 122.4 and 107.7"}, {"measurement": "Proliferation of Pa16C cells expressing MEK1 mutant constructs", "setting": "[3]; MEK1WT, inhibitor 11.111 nM", "value": "34.9 and 22.9 and 31.4 and 22.8"}, {"measurement": "Proliferation of Pa16C cells expressing MEK1 mutant constructs", "setting": "[3]; MEK1WT, inhibitor 33.333 nM", "value": "19.9 and 13.1 and 14.8 and 12.8"}, {"measurement": "Proliferation of Pa16C cells expressing MEK1 mutant constructs", "setting": "[3]; MEK1WT, inhibitor 100.000 nM", "value": "14.4 and 9 and 9.5 and 10.2"}, {"measurement": "Proliferation of Pa16C cells expressing MEK1 mutant constructs", "setting": "[3]; MEK1WT, inhibitor 300.000 nM", "value": "9.7 and 8 and 8.2 and 8.6"}]}
